Laboratory results taken from ChEMBL document CHEMBL1130065, “Dual inhibition of human leukocyte elastase and lipid peroxidation: in vitro and in vivo activities of azabicyclo[2.2.2]octane and perhydroindole derivatives” (J Med Chem, 1997).

What was measured:
[1] = biological target: T1, Neutrophil elastase (Homo sapiens, UniProt P08246); experiment: Inhibitory concentration against Human Leukocyte Elastase from human sputum
T1 sequence (P08246 whole entry): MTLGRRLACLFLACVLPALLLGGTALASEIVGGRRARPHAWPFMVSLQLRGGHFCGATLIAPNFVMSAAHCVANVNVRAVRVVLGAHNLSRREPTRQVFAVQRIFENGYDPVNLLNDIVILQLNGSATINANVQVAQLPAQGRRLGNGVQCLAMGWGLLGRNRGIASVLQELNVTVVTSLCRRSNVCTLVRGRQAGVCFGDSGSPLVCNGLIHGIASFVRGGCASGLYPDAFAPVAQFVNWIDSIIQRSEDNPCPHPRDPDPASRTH

[2] = organism: Rattus norvegicus
[3] = organism: Rattus norvegicus; experiment: Inhibitory concentration against ferric ascorbate-induced lipid peroxidation from rat liver microsomal preparation; type: functional
[4] = biological target: T2, Neutrophil elastase (Homo sapiens) (UniProt P08246); experiment: Percentage inhibition of HLE induced hemorrhage in the hamster lung at 3 hours; type: functional; design: concentration or dose not given beside the values; conditions: concentration not given here
T2 sequence (whole entry): T1 sequence (P08246 whole entry)

[5] = biological target: T2, Neutrophil elastase (Homo sapiens); experiment: Percentage inhibition of HLE induced hemorrhage in the hamster lung at 24 hours; type: functional, tissue-based; conditions: concentration not given here
[6] = biological target: T2, Neutrophil elastase (Homo sapiens); experiment: Percentage inhibition of HLE induced hemorrhage in the hamster lung at 6 hours; type: functional, tissue-based; conditions: concentration not given here
[7] = biological target: T2, Neutrophil elastase (Homo sapiens); experiment: Percentage inhibition of HLE induced hemorrhage in the hamster lung at 18 hours; type: functional, tissue-based; conditions: concentration not given here
[8] = biological target: T3, Prolyl endopeptidase (Homo sapiens, UniProt P48147); experiment: The concentration required to achieve 50% inhibition against prolyl endopeptidase
T3 sequence (P48147 whole entry): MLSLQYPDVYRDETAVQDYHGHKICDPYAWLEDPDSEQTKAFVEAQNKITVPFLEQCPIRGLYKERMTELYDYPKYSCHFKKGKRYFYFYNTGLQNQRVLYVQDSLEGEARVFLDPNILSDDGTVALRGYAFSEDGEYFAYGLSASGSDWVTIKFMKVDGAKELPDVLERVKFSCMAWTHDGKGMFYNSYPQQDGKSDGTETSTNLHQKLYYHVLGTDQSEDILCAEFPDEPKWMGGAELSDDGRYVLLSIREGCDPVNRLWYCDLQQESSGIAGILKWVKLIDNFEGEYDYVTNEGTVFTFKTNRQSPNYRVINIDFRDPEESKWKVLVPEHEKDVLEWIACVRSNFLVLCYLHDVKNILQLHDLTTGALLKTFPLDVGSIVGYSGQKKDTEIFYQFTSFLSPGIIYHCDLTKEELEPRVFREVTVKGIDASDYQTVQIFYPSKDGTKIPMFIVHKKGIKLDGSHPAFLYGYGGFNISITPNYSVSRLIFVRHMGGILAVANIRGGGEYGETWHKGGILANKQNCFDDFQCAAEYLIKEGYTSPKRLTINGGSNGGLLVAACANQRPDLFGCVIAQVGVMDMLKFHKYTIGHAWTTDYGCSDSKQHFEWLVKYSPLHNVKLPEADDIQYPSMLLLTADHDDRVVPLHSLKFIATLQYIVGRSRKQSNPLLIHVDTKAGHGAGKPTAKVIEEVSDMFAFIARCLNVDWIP

[9] = biological target: Stromelysin-1 (Homo sapiens, UniProt P08254); experiment: The concentration required to achieve 50% inhibition against Matrix metalloprotease-3
Chain of Stromelysin-1 (P08254 whole entry): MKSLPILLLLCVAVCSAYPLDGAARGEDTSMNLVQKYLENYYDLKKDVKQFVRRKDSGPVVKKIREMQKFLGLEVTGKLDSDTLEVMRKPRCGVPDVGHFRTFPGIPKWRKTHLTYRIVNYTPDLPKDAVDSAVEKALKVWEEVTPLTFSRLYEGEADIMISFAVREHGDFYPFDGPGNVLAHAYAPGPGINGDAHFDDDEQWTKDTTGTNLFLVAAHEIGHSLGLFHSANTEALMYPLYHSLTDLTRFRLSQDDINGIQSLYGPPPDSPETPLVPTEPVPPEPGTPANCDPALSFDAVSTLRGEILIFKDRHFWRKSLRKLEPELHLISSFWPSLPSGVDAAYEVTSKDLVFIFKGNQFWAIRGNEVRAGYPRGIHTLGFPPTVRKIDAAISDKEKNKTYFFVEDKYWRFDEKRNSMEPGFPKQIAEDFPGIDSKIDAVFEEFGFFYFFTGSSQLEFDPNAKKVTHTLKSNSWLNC

[10] = biological target: T4, Interstitial collagenase (Homo sapiens, UniProt P03956); experiment: The concentration required to achieve 50% inhibition against Matrix metalloprotease-1
T4 sequence (P03956 whole entry): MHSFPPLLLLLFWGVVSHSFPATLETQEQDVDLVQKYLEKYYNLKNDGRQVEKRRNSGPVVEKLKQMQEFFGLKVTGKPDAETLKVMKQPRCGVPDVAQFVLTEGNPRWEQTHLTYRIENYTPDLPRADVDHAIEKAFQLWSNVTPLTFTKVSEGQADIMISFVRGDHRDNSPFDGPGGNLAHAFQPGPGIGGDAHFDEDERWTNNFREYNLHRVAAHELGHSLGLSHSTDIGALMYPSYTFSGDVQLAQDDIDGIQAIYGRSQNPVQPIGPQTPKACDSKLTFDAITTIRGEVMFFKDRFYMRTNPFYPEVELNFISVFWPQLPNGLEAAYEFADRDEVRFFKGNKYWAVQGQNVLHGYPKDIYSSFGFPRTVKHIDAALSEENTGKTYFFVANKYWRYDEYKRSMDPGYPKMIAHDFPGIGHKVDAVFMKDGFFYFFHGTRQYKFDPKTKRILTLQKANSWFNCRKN

[11] = biological target: Matrix metalloproteinase-9 (Homo sapiens, UniProt P14780); experiment: The concentration required to achieve 50% inhibition against Matrix metalloprotease-9
Chain of Matrix metalloproteinase-9 (P14780 whole entry): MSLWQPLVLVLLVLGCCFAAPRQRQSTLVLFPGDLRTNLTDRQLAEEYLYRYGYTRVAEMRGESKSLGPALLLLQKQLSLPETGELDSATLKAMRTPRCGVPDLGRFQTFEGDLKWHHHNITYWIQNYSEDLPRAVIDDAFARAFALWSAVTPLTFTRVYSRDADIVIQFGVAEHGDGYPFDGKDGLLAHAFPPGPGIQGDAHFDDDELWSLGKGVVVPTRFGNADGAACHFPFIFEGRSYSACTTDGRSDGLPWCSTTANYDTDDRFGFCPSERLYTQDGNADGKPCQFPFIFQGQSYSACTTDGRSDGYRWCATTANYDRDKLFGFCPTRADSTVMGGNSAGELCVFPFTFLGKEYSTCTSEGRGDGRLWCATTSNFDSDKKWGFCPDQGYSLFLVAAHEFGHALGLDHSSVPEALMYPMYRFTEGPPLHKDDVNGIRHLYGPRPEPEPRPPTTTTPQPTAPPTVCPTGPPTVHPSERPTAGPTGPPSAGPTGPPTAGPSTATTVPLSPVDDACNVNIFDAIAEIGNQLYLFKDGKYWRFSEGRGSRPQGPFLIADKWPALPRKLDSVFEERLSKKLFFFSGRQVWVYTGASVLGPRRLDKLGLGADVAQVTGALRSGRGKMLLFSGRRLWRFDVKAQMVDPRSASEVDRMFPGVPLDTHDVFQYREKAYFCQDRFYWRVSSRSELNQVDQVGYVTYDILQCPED

[12] = biological target: 72 kDa type IV collagenase (Homo sapiens, UniProt P08253); experiment: The concentration required to achieve 50% inhibition against Matrix metalloprotease-2
Chain of 72 kDa type IV collagenase (P08253 whole entry): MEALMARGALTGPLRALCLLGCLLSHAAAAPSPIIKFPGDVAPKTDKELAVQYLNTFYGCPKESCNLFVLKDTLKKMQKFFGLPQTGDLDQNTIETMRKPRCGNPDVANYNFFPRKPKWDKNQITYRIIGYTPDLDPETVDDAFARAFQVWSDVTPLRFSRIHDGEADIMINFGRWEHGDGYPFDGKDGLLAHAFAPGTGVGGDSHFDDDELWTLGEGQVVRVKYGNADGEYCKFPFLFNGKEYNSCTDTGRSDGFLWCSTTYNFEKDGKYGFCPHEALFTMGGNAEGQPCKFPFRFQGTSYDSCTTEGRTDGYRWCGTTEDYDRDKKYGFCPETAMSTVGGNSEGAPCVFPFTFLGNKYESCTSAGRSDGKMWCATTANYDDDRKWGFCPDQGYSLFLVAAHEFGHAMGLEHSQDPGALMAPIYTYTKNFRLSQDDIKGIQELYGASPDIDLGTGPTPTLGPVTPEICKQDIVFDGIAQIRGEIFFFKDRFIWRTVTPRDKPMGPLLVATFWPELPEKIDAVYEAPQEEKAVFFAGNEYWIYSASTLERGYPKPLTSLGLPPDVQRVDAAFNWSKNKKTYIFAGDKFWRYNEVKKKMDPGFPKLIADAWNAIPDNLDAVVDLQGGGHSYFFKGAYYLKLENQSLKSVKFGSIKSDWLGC

[13] = biological target: T2, Neutrophil elastase (Homo sapiens); experiment: Percentage inhibition of HLE induced hemorrhage in the hamster lung at 48 hours; type: functional, tissue-based; conditions: concentration not given here

SMILES | IC50 [1] | IC50 [2] | IC50 [3] | inhibition [4] | also measured
CC(C)C(NC(=O)c1ccc(C(=O)NS(=O)(=O)c2ccc(Cl)cc2)cc1)C(=O)N1C2CCC(CC2)[C@@H]1C(=O)NC(C(=O)C(F)(F)F)C(C)C (stereo not given in full) | 15 nM | Not Active |  |  | 
CC(C)C(NC(=O)[C@@H]1CC2CCCCC2N1C(=O)[C@@H](CCCCNC(=O)CCCSc1cc(C(C)(C)C)c(O)c(C(C)(C)C)c1)NC(=O)c1ccc(C(=O)NS(=O)(=O)c2ccc(Cl)cc2)cc1)C(=O)C(F)(F)F (stereo not given in full) | 84 nM |  | 2500 nM | 3% | 
CC(C)[C@H](NC(=O)OC(C)(C)C)C(=O)N1C2CCC(CC2)[C@@H]1C(=O)N[C@H](C(=O)C(F)(F)F)C(C)C | 32 nM |  |  |  | 
CC(C)C(NC(=O)c1ccc(S(=O)(=O)NC(=O)Cc2cc(C(C)(C)C)c(O)c(C(C)(C)C)c2)cc1)C(=O)N1[C@@H](C(=O)NC(C(=O)C(F)(F)F)C(C)C)C[C@H]2CCCC[C@H]21 (stereo not given in full) | 38 nM |  | 5000 nM | 66% | inhibition [5]: 3%; inhibition [6]: 65%; inhibition [7]: 26%
CCOCOc1c(C(C)(C)C)cc(/C=C/C(=O)NS(=O)(=O)c2ccc(C(=O)NC(C(=O)N3[C@@H](C(=O)NC(C(=O)C(F)(F)F)C(C)C)C[C@H]4CCCC[C@H]43)C(C)C)cc2)cc1C(C)(C)C (stereo not given in full) | 36 nM | Not Active |  | 19% | 
CC(C)C(NC(=O)c1ccc(S(=O)(=O)NC(=O)c2cc(C(C)(C)C)c(OC(=O)c3cc(C(C)(C)C)c(O)c(C(C)(C)C)c3)c(C(C)(C)C)c2)cc1)C(=O)N1[C@@H](C(=O)NC(C(=O)C(F)(F)F)C(C)C)C[C@H]2CCCC[C@H]21 (stereo not given in full) | 46 nM | Not Active |  | 0% | 
CC(C)C(NC(=O)c1ccc(S(=O)(=O)NC(=O)c2ccc(Cl)c(S(=O)(=O)NC(=O)CSc3cc(C(C)(C)C)c(O)c(C(C)(C)C)c3)c2)cc1)C(=O)N1[C@@H](C(=O)NC(C(=O)C(F)(F)F)C(C)C)C[C@H]2CCCC[C@H]21 (stereo not given in full) |  |  |  |  | IC50 [8]: 2000 nM; IC50 [9]: 38000 nM; IC50 [10]: 58000 nM; IC50 [11]: 24000 nM; IC50 [12]: 19000 nM
CC(C)C(NC(=O)[C@@H]1CC2CCCCC2N1C(=O)[C@@H](CCCCNC(=O)Cc1cc(C(C)(C)C)c(O)c(C(C)(C)C)c1)NC(=O)c1ccc(C(=O)NS(=O)(=O)c2ccc(Cl)cc2)cc1)C(=O)C(F)(F)F (stereo not given in full) | 70 nM |  | 2500 nM | 40% | inhibition [5]: 14%; inhibition [6]: 41%; inhibition [13]: 0%; inhibition [7]: 45%
